# Data published in patent US20110098298A1, “New Pyridin-3-Amine Derivatives” (priority 2006, published 2011).
# Columns and labels:
# [1] = test system: TNFα production in human monocytic cell line THP-1; assay: Inhibition of LPS-induced TNFα production in THP-1 cells; type: cell-based; conditions: LPS 10 μg/ml, 5 h, TNFα ELISA
# Experimental: The activity of compounds in inhibiting TNFα production was measured in a cellular assay using the human monocytic cell line THP-1. For this purpose, 2×10^5 cells/well were plated in tissue-culture treated round-bottom 96-well plates in RPMI (containing 10% FCS, L-Gln 2 mM, Hepes buffer 10 mM, sodium pyruvate 1 mM, glucose 4.5 gr/L, HNaCO3 1.5 g/L and beta-mercaptoethanol 50 μM), together with compounds at the desired test concentration and LPS (Sigma, L2630) at a final 10 μg/ml concentration. Compounds were resuspended in 100% DMSO at a concentration of 1 mM and titrated thereof in 10× dilutions in medium. Controls included stimulated cells alone and stimulated cells treated with the highest concentration of compound vehicle (1% DMSO). Cells were incubated for 5 h at 37° C. in a 5% CO2 atmosphere. Cell supernatant was recovered by centrifugation and diluted 5-fold prior to testing in a standard human TNFα ELISA (RnD systems).
# Data were analyzed by non-linear regression (Hill equation) to generate a dose-response curve. The calculated IC50 value is the concentration of the test compound that caused a 50% decrease in the maximal TNFα production.
# [2] = biological target: T1, human p38alfa (SAPKa) enzyme (Homo sapiens, UniProt Q16539); assay: p38alpha enzymatic inhibition assay (FRET, ATF2 substrate); type: biochemical; conditions: 1 h pre-incubation, ATP 60 μM, ATF2 0.62 μM, 25° C., read-out: p38α IC50
# T1 construct: purchased University of Dundee
# Experimental: Enzymatic activity assay was performed in 96-well microtiter plates (Corning, catalog number # 3686) using a total volume of 50 μl of an assay buffer composed of 50 mM HEPES pH 7.5, 10 mM MgCl2, 1.75 mM Na3VO4.
# Various concentrations of the test compound or vehicle controls were pre-incubated for one hour with 0.055 μg/ml of the human p38alfa (SAPKa) enzyme (obtained from University of Dundee). […] Addition of the detection reagents, streptavidin-XL665 and anti-phosphoresidue antibody coupled to Europium cryptate, caused the juxtaposition of the cryptate and the XL665 fluorophore, resulting in fluorescence energy transfer (FRET). The FRET intensity depends on the amount of bounded cryptate antibody, which is proportional to the extent of substrate phosphorylation. FRET intensity was measured using Victor 2V spectrofluorometer. Data were analyzed by non-linear regression (Hill equation) to generate a dose-response curve. The calculated IC50 value is the concentration of the test compound that caused a 50% decrease in the maximal FRET intensity.
# T1 sequence (Q16539 whole entry): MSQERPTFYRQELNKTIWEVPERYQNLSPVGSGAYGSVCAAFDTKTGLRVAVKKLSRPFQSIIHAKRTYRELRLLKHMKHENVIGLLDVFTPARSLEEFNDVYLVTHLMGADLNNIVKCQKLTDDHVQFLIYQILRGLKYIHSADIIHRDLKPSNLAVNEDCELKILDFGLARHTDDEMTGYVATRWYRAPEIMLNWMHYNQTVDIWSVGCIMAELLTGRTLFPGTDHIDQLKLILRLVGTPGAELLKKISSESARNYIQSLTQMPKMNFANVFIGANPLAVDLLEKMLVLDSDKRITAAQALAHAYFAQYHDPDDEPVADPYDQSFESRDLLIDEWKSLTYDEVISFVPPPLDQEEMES
smiles,measurement,setting,value
"Nc1c(C(=O)c2ccc(F)cc2F)ccnc1-c1ccccc1Cl [Example 25, [3-Amino-2-(2-chlorophenyl)pyridin-4-yl](2,4-difluorophenyl)methanone]",IC50,[1],130 nM
same,IC50,[2],251 nM
"Nc1c(C(=O)c2ccc(F)cc2F)cc[n+]([O-])c1-c1ccccc1Cl [Example 26, [3-Amino-2-(2-chlorophenyl)-1-oxidopyridin-4-yl](2,4-difluorophenyl)methanone]",IC50,[1],76 nM
"Nc1c(C(=O)c2ccc(F)cc2F)cc[n+]([O-])c1-c1c(Cl)cccc1Cl [Example 32, [3-Amino-2-(2,6-dichlorophenyl)-1-oxidopyridin-4-yl](2,4-difluorophenyl)methanone]",IC50,[1],19.4 nM
"Cc1cccc(C)c1-c1c(N)c(C(=O)c2ccc(F)cc2F)cc[n+]1[O-] [Example 36, [3-Amino-2-(2,6-dimethylphenyl)-1-oxidopyridin-4-yl](2,4-difluorophenyl)methanone]",IC50,[1],33 nM
"Cc1cc(O)ccc1-c1nccc(C(=O)c2ccc(F)cc2F)c1N [Example 47, [3-Amino-2-(4-hydroxy-2-methylphenyl)pyridin-4-yl](2,4-difluorophenyl)methanone]",IC50,[1],402 nM
same,IC50,[2],277 nM
"Cc1cc(O)ccc1-c1c(N)c(C(=O)c2ccc(F)cc2F)cc[n+]1[O-] [Example 48, [3-Amino-2-(4-hydroxy-2-methylphenyl)-1-oxidopyridin-4-yl](2,4-difluorophenyl)methanone]",IC50,[1],84 nM
"Nc1c(C(=O)c2ccc(F)cc2F)ccnc1-c1cccc2c1OCO2 [Example 79, [3-Amino-2-(1,3-benzodioxol-4-yl)pyridin-4-yl](2,4-difluorophenyl)methanone]",IC50,[1],53 nM
same,IC50,[2],103 nM
"Cc1ccccc1-c1c(N)c(C(=O)c2ccccc2Cl)cc[n+]1[O-] [Example 82, [3-Amino-2-(2-methylphenyl)-1-oxidopyridin-4-yl](2-chlorophenyl)methanone]",IC50,[1],118 nM
same,IC50,[2],31 nM
"Cc1cccc(C(=O)c2cc[n+]([O-])c(-c3ccccc3C)c2N)c1 [Example 92, [3-Amino-2-(2-methylphenyl)-1-oxidopyridin-4-yl](3-methylphenyl)methanone]",IC50,[1],54 nM
same,IC50,[2],34 nM
"Cc1cccc(C(=O)c2cc[n+]([O-])c(-c3c(F)cccc3F)c2N)c1 [Example 98, [3-Amino-2-(2,6-difluorophenyl)-1-oxidopyridin-4-yl](3-methylphenyl)methanone]",IC50,[1],48 nM
same,IC50,[2],20 nM
"Nc1c(C(=O)c2cccc(F)c2)ccnc1-c1cccc2c1OCO2 [Example 109, [3-Amino-2-(1,3-benzodioxol-4-yl)pyridin-4-yl](3-fluorophenyl)methanone]",IC50,[1],349 nM
same,IC50,[2],359 nM
"COc1ccccc1C(=O)c1cc[n+]([O-])c(-c2c(F)cccc2F)c1N [Example 118, [3-Amino-2-(2,6-difluorophenyl)-1-oxidopyridin-4-yl](2-methoxyphenyl)methanone]",IC50,[1],140 nM
same,IC50,[2],86 nM
"COc1ccccc1C(=O)c1cc[n+]([O-])c(-c2c(C)cccc2C)c1N [Example 120, [3-Amino-2-(2,6-dimethylphenyl)-1-oxidopyridin-4-yl](2-methoxyphenyl)metha-none]",IC50,[1],98 nM
same,IC50,[2],146 nM
